Data taken from patent US4160783A, “4-Dedimethylamino-4-arylsulfonamido-5a,6-anhydrotetracyclines” (PLIVA Pharmaceutical and Chemical Works, priority 1976, dated 1979).

Tested on: Micrococcus flavus ATCC 10240, Sarcina lutea ATCC 9341 and Staph. epidermidis ATCC 12228
Experiment: antibacterial activity compared with tetracycline, statement for three organisms
Assay type: cell-based
Conditions: strongest activity against M. flavus ATCC 10240, Sarcina lutea ATCC 9341, Staph. epidermidis ATCC 12228

SMILES	activity relative to that of tetracycline
Cc1ccc(S(=O)(=O)NC2C(O)=C(C(N)=O)C(=O)C3(O)C(=O)c4c(c(C)c5cccc(O)c5c4O)CC23)cc1 (stereo not shown) [Compound 2, 4-p-toluene-sulfonamido-5a,6-anhydrotetracycline]	considerably superior or equal to that of tetracycline
Cc1c2c(c(O)c3c(O)cccc13)C(=O)C1(O)C(=O)C(C(N)=O)=C(O)C(NS(=O)(=O)c3ccc(Br)cc3)C1C2 (stereo not shown) [Compound 4, 4-p-bromobenzenesulfonamido-5a,6-anhydrotetracycline]	considerably superior or equal to that of tetracycline
Cc1c2c(c(O)c3c(O)cccc13)C(=O)C1(O)C(=O)C(C(N)=O)=C(O)C(NS(=O)(=O)c3ccc(F)cc3)C1C2 (stereo not shown) [Compound 3, 4-p-fluorbenzenesulfonamido-5a,6-anhydrotetracycline]	considerably superior or equal to that of tetracycline
CCc1ccc(S(=O)(=O)NC2C(O)=C(C(N)=O)C(=O)C3(O)C(=O)c4c(c(C)c5cccc(O)c5c4O)CC23)cc1 (stereo not shown) [Compound 6, 4-p-ethylbenzenesulfonamido-5a,6-anhydrotetracycline]	considerably superior or equal to that of tetracycline
